Test results taken from patent US20230365554A1, “SUBSTITUTED PYRROLO-PYRIDINONE DERIVATIVES AND THERAPEUTIC USES THEREOF” (The Broad Institute, Inc., priority 2020, published 2023).
pIC50: −log10 of the molar value.

Key:
human CSNK1A1 = human CSNK1A1 (Homo sapiens (Human), UniProt P48729); test: CSNK1A1 Assay 2 (ADP-Glo, 1 μM ATP); format: biochemical; details: median, Table 2, read-out: CSNK1A1 Assay 2 IC50 [mol/l] (median)
Protocol: CSNK1A1-inhibitory activity of compounds of the present invention in presence of 1 μM adenosine-tri-phosphate (ATP) was quantified employing the CSNK1A1 assay as described in the following paragraphs. In essence, the enzyme activity is measured by quantification of the adenosine-di-phosphate (ADP), which is generated as a co-product of the enzyme reaction, via the “ADP-Glo™ Kinase Assay” kit from the company Promega. This detection system works as follows: In a first step the ATP not consumed in the kinase reaction is quantitatively converted to cAMP employing an adenylate cyclase (“ADP-Glo-reagent”), then the adenylate cyclase is stopped and the ADP generated in the kinase reaction converted to ATP which generates in a luciferase-based reaction a glow-luminescence signal (“Kinase Detection Reagent”).
(§1) Recombinant fusion protein of N-terminal Glutathion-S-Transferase (GST) and full-length human CSNK1A1, expressed by baculovirus infected insect cells and purified via Glutathion affinity chromatography, was purchased from Life Technologies (product no. PV4174) and used as enzyme. As substrate for the kinase reaction the biotinylated peptide biotin-Ahx-KRRRAL-pS-VASLPGL (C-terminus in amide form) was used which can be purchased e.g. from the company Biosyntan (Berlin-Buch, Germany).
For the assay 50 nl of a 100 fold concentrated solution of the test compound in DMSO was pipetted into a white 1536-well microtiter plate (Greiner Bio-One, Frickenhausen, Germany), 2 μL of a solution of CSNK1A1 in aqueous assay buffer [50 mM HEPES pH 7.5, 10% (v/v) glycerol, 10 mM MgCl2, 50 mM NaCl, 1 mM dithiothreitol, 0.01% (w/v) bovine serum albumin, 0.01% (v/v) Triton X-100] were added and the mixture was incubated for 15 min at 22° C. to allow pre-binding of the test compounds to the enzyme before the start of the kinase reaction. Then the kinase reaction was started by the addition of 3 μL of a solution of ATP (1.67 μM=>final conc. in the 5 μL assay volume is 1 μM) and peptide substrate (50 μM=>final conc. in the 5 μL assay volume is 30 μM) in assay buffer and the resulting mixture was incubated for a reaction time of 30 min at 22° C. The concentration of CSNK1A1 was adjusted depending of the activity of the enzyme lot and was chosen appropriate to have the assay in the linear range, a typical concentrations are about 0.0375 ng/μL. The reaction was stopped by the addition of 2.5 μL of “ADP-Glo-reagent” (1:1.5 fold diluted with water) and the resulting mixture was incubated at 22° C. for 1 h to convert the ATP not consumed in the kinase reaction completely […]. Subsequently 2.5 μL of the “kinase detection reagent” (1.2 fold more concentrated than recommended by the producer) were added, the resulting mixture was incubated at 22° C. for 1 h and then the luminescence measured with a suitable measurement instrument (e.g. Viewlux™ from Perkin-Elmer). The amount of emitted light was taken as a measure for the amount of ADP generated and thereby for the activity of the CSNK1A1.
(§2) The data were normalised (enzyme reaction without inhibitor=0% inhibition, all other assay components but no enzyme=100% inhibition).

human CSNK1D = human CSNK1D (Homo sapiens (Human), UniProt P48730); test: CSNK1D assay (ADP-Glo, 1 μM ATP); format: biochemical; details: median, Table 2, read-out: CSNK1D IC50 [mol/l] (median)
Protocol: CSNK1D-inhibitory activity of compounds of the present invention in presence of 1 μM adenosine-tri-phosphate (ATP) was quantified employing the CSNK1D assay as described in the following paragraphs. In essence, the enzyme activity is measured by quantification of the adenosine-di-phosphate (ADP), which is generated as a co-product of the enzyme reaction, via the “ADP-Glo™ Kinase Assay” kit from the company Promega. This detection system works as follows: In a first step the ATP not consumed in the kinase reaction is quantitatively converted to cAMP employing an adenylate cyclase (“ADP-Glo-reagent”), then the adenylate cyclase is stopped and the ADP generated in the kinase reaction converted to ATP which generates in a luciferase-based reaction a glow-luminescence signal (“Kinase Detection Reagent”).
as §1, with “CSNK1D,” for “CSNK1A1,”, “PV3665)” for “PV4174)”, “Btn-Ahx-SGSEGDSESGEEEG” for “biotin-Ahx-KRRRAL-pS-VASLPGL”
For the assay 50 nl of a 100 fold concentrated solution of the test compound in DMSO was pipetted into a white 1536-well microtiter plate (Greiner Bio-One, Frickenhausen, Germany), 2 μL of a solution of CSNK1D in aqueous assay buffer [50 mM HEPES pH 7.5, 10% (v/v) glycerol, 10 mM MgCl2, 50 mM NaCl, 1 mM dithiothreitol, 0.01% (w/v) bovine serum albumin, 0.01% (v/v) Triton X-100] were added and the mixture was incubated for 15 min at 22° C. to allow pre-binding of the test compounds to the enzyme before the start of the kinase reaction. Then the kinase reaction was started by the addition of 3 μL of a solution of ATP (1.67 μM=>final conc. in the 5 μL assay volume is 1 μM) and peptide substrate (50 μM=>final conc. in the 5 μL assay volume is 30 μM) in assay buffer and the resulting mixture was incubated for a reaction time of 30 min at 22° C. The concentration of CSNK1D was adjusted depending of the activity of the enzyme lot and was chosen appropriate to have the assay in the linear range, a typical concentration is about 0.5 ng/μL. The reaction was stopped by the addition of 2.5 μL of “ADP-Glo-reagent” (1:1.5 fold diluted with water) and the resulting mixture was incubated at 22° C. for 1 h to convert the ATP not consumed in the kinase reaction completely […]. Subsequently 2.5 μL of the “kinase detection reagent” (1.2 fold more concentrated than recommended by the producer) were added, the resulting mixture was incubated at 22° C. for 1 h and then the luminescence measured with a suitable measurement instrument (e.g. Viewlux™ from Perkin-Elmer). The amount of emitted light was taken as a measure for the amount of ADP generated and thereby for the activity of the CSNK1D.
as §2

Chain of human CSNK1D (P48730 whole entry): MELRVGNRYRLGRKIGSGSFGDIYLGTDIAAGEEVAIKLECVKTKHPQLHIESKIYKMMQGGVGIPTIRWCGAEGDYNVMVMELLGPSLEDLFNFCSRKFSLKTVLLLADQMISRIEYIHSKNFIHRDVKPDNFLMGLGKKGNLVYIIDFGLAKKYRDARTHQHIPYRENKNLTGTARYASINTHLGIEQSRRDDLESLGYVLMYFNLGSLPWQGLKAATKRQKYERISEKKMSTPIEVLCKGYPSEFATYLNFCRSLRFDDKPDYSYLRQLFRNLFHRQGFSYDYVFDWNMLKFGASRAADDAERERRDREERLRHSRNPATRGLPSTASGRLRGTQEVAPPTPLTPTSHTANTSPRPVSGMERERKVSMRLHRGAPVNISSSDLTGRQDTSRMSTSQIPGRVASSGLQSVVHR
Chain of human CSNK1A1 (P48729 whole entry): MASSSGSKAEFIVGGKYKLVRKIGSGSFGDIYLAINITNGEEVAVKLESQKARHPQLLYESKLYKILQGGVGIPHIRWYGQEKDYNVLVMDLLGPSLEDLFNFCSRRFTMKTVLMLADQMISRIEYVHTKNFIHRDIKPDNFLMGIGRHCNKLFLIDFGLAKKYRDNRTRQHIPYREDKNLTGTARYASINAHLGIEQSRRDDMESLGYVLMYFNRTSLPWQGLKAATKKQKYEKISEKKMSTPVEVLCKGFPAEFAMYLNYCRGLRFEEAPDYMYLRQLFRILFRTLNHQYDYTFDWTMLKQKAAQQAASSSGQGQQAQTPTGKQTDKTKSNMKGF

Row | Structure (SMILES) | pIC50 (human CSNK1A1) | pIC50 (human CSNK1D)
1 | CCC1CNC(=O)c2c1[nH]c(-c1ccnc(NC(=O)Cc3ccc(F)cc3)c1)c2Nc1ccccc1 (racemic) [Example 1, N-{4-[3-anilino-7-ethyl-4-oxo-4,5,6,7-tetrahydro-1H-pyrrolo[3,2-c]pyridin-2-yl]pyridin-2-yl}-2-(4-fluorophenyl)acetamide] | 8.82 | 8.26
2 | CCc1c[nH]c(=O)c2c(Nc3ccccc3)c(-c3ccnc(NC(=O)C(CC(F)F)c4ccc(F)cc4)c3)[nH]c12 (racemic) [Example 5, N-[4-(3-anilino-7-ethyl-4-oxo-4,5-dihydro-1H-pyrrolo[3,2-c]pyridin-2-yl)pyridin-2-yl]-4,4-difluoro-2-(4-fluorophenyl)butanamide] | 8.14 | 8.19
3 | CC1CN(C)C(=O)c2c1[nH]c(-c1ccnc(NC(=O)Cc3ccc(F)cc3)c1)c2Nc1ccccc1 (racemic) [Example 6, N-{4-[3-anilino-5,7-dimethyl-4-oxo-4,5,6,7-tetrahydro-1H-pyrrolo[3,2-c]pyridin-2-yl]pyridin-2-yl}-2-(4-fluorophenyl)acetamide] | 8.59 | 8.19
4 | CC1CN(C)C(=O)c2c1[nH]c(-c1ccnc(NC(=O)C(C)c3ccc(F)cc3)c1)c2Nc1ccccc1 (racemic) [Example 9, N-{4-[(7RS)-3-anilino-5,7-dimethyl-4-oxo-4,5,6,7-tetrahydro-1H-pyrrolo[3,2-c]pyridin-2-yl]pyridin-2-yl}-2-(4-fluorophenyl)propanamide] | 8.25 | 7.92
5 | Cc1cn(C)c(=O)c2c(Nc3ccccc3)c(-c3ccnc(NC(=O)C(CC(F)F)c4ccc(F)cc4)c3)[nH]c12 (racemic) [Example 11, N-[4-(3-anilino-5,7-dimethyl-4-oxo-4,5-dihydro-1H-pyrrolo[3,2-c]pyridin-2-yl)pyridin-2-yl]-4,4-difluoro-2-(4-fluorophenyl)butanamide] | 7.72 | 7.60
6 | CN1CC(CC(F)(F)F)c2[nH]c(-c3ccnc(NC(=O)Cc4ccc(F)cc4)c3)c(Nc3ccccc3)c2C1=O (racemic) [Example 14, N-{4-[3-anilino-5-methyl-4-oxo-7-(2,2,2-trifluoroethyl)-4,5,6,7-tetrahydro-1H-pyrrolo[3,2-c]pyridin-2-yl]pyridin-2-yl}-2-(4-fluorophenyl)acetamide] | 8.51 | 8.29
7 | CN1CC(CC2CC2)c2[nH]c(-c3ccnc(NC(=O)Cc4ccc(F)cc4)c3)c(Nc3ccccc3)c2C1=O (racemic) [Example 18, N-{4-[3-anilino-7-(cyclopropylmethyl)-5-methyl-4-oxo-4,5,6,7-tetrahydro-1H-pyrrolo[3,2-c]pyridin-2-yl]pyridin-2-yl}-2-(4-fluorophenyl)acetamide] | 8.18 | 7.92
8 | O=C1N[C@@H]2CCC[C@@H]2c2[nH]c(-c3ccnc(NC(=O)C(CC(F)F)c4ccc(F)cc4)c3)c(Nc3ccccc3)c21 (mixture of isomers) [Example 21, (2RS)—N-{4-[cis-3-anilino-4-oxo-1,4,5,5a,6,7,8,8a-octahydrocyclopenta[b]pyrrolo[2,3-d]pyridin-2-yl]pyridin-2-yl}-4,4-difluoro-2-(4-fluorophenyl)butanamide] | 7.96 | 7.74
9 | Cn1ccc2[nH]c(-c3ccnc(NC(=O)C(CC(F)F)c4ccc(F)cc4)c3)c(Nc3ccccc3)c2c1=O (racemic) [Example 28, N-[4-(3-anilino-5-methyl-4-oxo-4,5-dihydro-1H-pyrrolo[3,2-c]pyridin-2-yl)pyridin-2-yl]-4,4-difluoro-2-(4-fluorophenyl)butanamide] | 8.28 | 8.09
10 | Cc1cc2[nH]c(-c3ccnc(NC(=O)C(CC(F)F)c4ccc(F)cc4)c3)c(Nc3ccccc3F)c2c(=O)n1C (racemic) [Example 31, 4,4-difluoro-N-{4-[3-(2-fluoroanilino)-5,6-dimethyl-4-oxo-4,5-dihydro-1H-pyrrolo[3,2-c]pyridin-2-yl]pyridin-2-yl}-2-(4-fluorophenyl)butanamide] | 7.51 | 7.49
11 | Cc1cn(C)c(=O)c2c(Nc3ccccc3)c(-c3ccnc(NC(=O)C(C)c4ccc(F)cc4)c3)[nH]c12 (racemic) [Example 39, N-[4-(3-anilino-5,7-dimethyl-4-oxo-4,5-dihydro-1H-pyrrolo[3,2-c]pyridin-2-yl)pyridin-2-yl]-2-(4-fluorophenyl)propanamide] | 7.29 | 7.25
12 | CN1CC(CC(F)F)c2[nH]c(-c3ccnc(NC(=O)Cc4ccc(F)cc4)c3)c(Nc3ccccc3)c2C1=O (racemic) [Example 42, N-{4-[3-anilino-7-(2,2-difluoroethyl)-5-methyl-4-oxo-4,5,6,7-tetrahydro-1H-pyrrolo[3,2-c]pyridin-2-yl]pyridin-2-yl}-2-(4-fluorophenyl)acetamide] | 8.74 | 8.39
13 | CN1CC(CC(F)(F)F)c2[nH]c(-c3ccnc(NC(=O)Cc4ccc(F)cc4)c3)c(Nc3cscn3)c2C1=O (racemic) [Example 46, 2-(4-fluorophenyl)-N-{4-[(7RS)-5-methyl-4-oxo-3-(1,3-thiazol-4-ylamino)-7-(2,2,2-trifluoroethyl)-4,5,6,7-tetrahydro-1H-pyrrolo[3,2-c]pyridin-2-yl]pyridin-2-yl}acetamide] | 7.64 | 7.14
14 | CN1CC(CC2CC2)c2[nH]c(-c3ccnc(NC(=O)Cc4ccc(F)cc4)c3)c(Nc3cscn3)c2C1=O (racemic) [Example 49, N-{4-[(7RS)-7-(cyclopropylmethyl)-5-methyl-4-oxo-3-(1,3-thiazol-4-ylamino)-4,5,6,7-tetrahydro-1H-pyrrolo[3,2-c]pyridin-2-yl]pyridin-2-yl}-2-(4-fluorophenyl)acetamide] | 8.23 | 7.85
